Measured values: patent publication US9765114B2, “Method for cancer immunotherapy” (International Institute of Cancer Immunology, Inc., priority 2005, dated 2017)
No end group written: not given here.

What was measured:
[1] = tested on: splenocytes; assay: Immunization of a mouse (2), mouse IFN gamma ELISPOT of splenocytes; assay type: in vivo, HLA-A2402/K^b transgenic mouse; details: splenocytes 7 days after immunization; peptides added at 10^-6 M, 18 hours; FIG. 8
Experimental: The peptide of Example 1 was adjusted to 40 mg/ml in DMSO. Then, the solution (32.5 μl) was mixed with water for injection (540 μl). Further, the resulting solution (550 μl) was mixed with Freund's incomplete adjuvant (700 μl) (Montanide ISA51 (registered trademark)) (SEPPIC, Inc, Paris, France) using a glass syringe to prepare water-in-oil emulsion.
The resulting preparation (200 μl) was injected into an HLA-A2402/K^b transgenic mouse intradermally in the base of the tail for immunization. 7 days after initiation of the experiment, spleen was removed and splenocytes were prepared in a conventional manner (WO 02/47474). Then, tests were conducted using mouse IFN gamma ELISPOT set (Enzyme—Linked Immunospot) (Fujisawa, catalog No. BD-551083). The test was conducted according to the instructions attached to the set.
According to the attached instructions, the plate was washed and the number of spots was detected using KS Elispot Research System (Carl Zeiss). Elispot method is known as an alternative to a test for cytotoxic activity (J. Immunological Methods, 1995, 181, 45-54).

[2] = tested on: HLA-A2402 expressing VA13/A2402 cells pulsed with or without peptide; assay: Test using human PBMC: IFN-γ ELISA of peptide-stimulated CD8 positive T cells; assay type: cell-based; details: Day 21 T cells, FIG. 9
Experimental: Peripheral blood (50 ml) was taken using heparinized vacuum blood collection tube from HLA-A24 positive healthy subjects. The blood diluted two fold with PBS (−) was overlayered on Ficoll-Paque (Amersham Biosciences), the amount of which was half of the amount of the blood, followed by centrifugation for 20 minutes at 2000 rpm. A cell layer containing the peripheral blood mononuclear cells (PBMC) was collected and 3-4 times the amount of PBS (−) was added thereto, followed by centrifugation for 10 minutes at 1800 rpm. The cell pellet was washed twice with PBS (−) and PMBC was collected.
The PMBC was suspended in medium for culturing lymphocyte (RPMI1640: AIM V=1:1, NEAA, 10% FCS) and cultured in a culture flask for two hours and nonadherent cells were collected. Using CD8^+ T cell isolation kit II (Miltenyi Biotec), CD8 positive T cells were collected among the nonadherent cells. The adherent cells were cultured in the medium for culturing lymphocyte containing GM-CSF (1000 U/ml) and IL-4 (1000 U/ml) for 7 days. The floating cells were collected as an antigen-presenting cell fraction containing dendritic cells (DC). The collected cells were frozen for preservation until they are used for experiments.
The DC fraction prepared as above was pulsed with the peptide of Example 1 (50 μg/ml) by incubating the cells with the peptide in AIM-V medium containing mitomycin (50 μg/ml) for one hour. After washing with the medium three times, the peptide of Example 1 was further added (50 μg/ml) for one hour pulse to prepare antigen-presenting cells. On Day 0, antigen-presenting cells pulsed with the peptide were added to CD8 positive T cells to conduct the first stimulation, and the cell culture was started in medium for culturing lymphocyte containing IL-7 (10 ng/ml) using 24-well plate. On Day 7, T cells were collected and after washing them, peptide stimulation using antigen-presenting cells pulsed with the peptide was conducted in a similar way to the first stimulation. On the next day (Day 8), IL-2 was added so that the concentration was 50 U/ml. On Day 14, T cells were collected and the third stimulation was conducted in a similar way to the first or second stimulation. On the next day (Day 15), IL-2 was added so that the concentration was 50 U/ml. On Day 21, T cells were collected and frozen for preservation.
1×10^5 cells of T cells of Day 21 were added to 2×10^4 cells of HLA-A2402 expressing VA13/A2402 cells pulsed with or without each of the peptides (wild type peptide (WT1235-243), modified peptide (WT1235-243(2M→Y)) or the peptide of Example 1) and 18 hours later, the supernatant was collected to determine the amount of IFN-γ using ELISA.
The results of the peptide specific reactivity of T cells stimulated with the synthetic peptide of Example 1 were shown in FIG. 9. […]

[3] = tested on: HLA-A24; details: HLA-A24-restricted manner; cited from earlier work
[4] = tested on: HLA-A24 antigen; details: compared with the wild type peptide; cited from earlier work

H-Cys(H-Cys-OH)-Tyr-Thr-Trp-Asn-Gln-Met-Asn-Leu-OH (H-C(Cys)YTWNQMNL-OH; also: Cys1 disulfide-linked to a free Cys-OH (cystine)) [Example 1, derivative of WT1235-243 (2M→Y) modified with cystine]
HLA-A24 specific cell-mediated immunity, IFN gamma ELISPOT spots [1]: could induce HLA-A24 specific cell-mediated immunity which cross reacted with the wild type peptide | reactivity (IFN-γ) of T cells stimulated with the peptide to cells pulsed without the peptide ([2]; VA13/A2402 cells not pulsed, 18 hours): did not react | reactivity (IFN-γ) of T cells stimulated with the peptide to cells pulsed with the modified peptide (WT1235-243 (2M→Y)) ([2]; VA13/A2402 cells pulsed with WT1235-243 (2M→Y), 18 hours): reacted | reactivity (IFN-γ) of T cells stimulated with the peptide to cells pulsed with the wild type peptide (WT1235-243) ([2]; VA13/A2402 cells pulsed with WT1235-243, 18 hours): reacted | reactivity (IFN-γ) of T cells stimulated with the peptide to cells pulsed with the peptide of Example 1 ([2]; VA13/A2402 cells pulsed with the peptide of Example 1, 18 hours): sufficiently reacted

CMTWNQMNL [WT1235-243, peptide spanning positions 235 to 243 of the cancer antigen protein WT1]
activity to induce CTLs [3]: having an activity to induce CTLs in HLA-A24-restricted manner

CYTWNQMNL [WT1235-243 (2M→Y)]
binding affinity for the HLA-A24 antigen [4]: higher binding affinity for the HLA-A24 antigen than the wild type peptide
